{"source": "patent US12383526B2", "about": "“Optimized sigma-1 agonist method of responder selection and treatment” (ANAVEX LIFE SCIENCES CORP., priority 2018, dated 2025)", "system": "subjects with mild-to-moderate AD", "test": "ADCS-ADL (Activities of Daily Living) change from baseline, 57-week Phase 2a study and 208-week extension study", "assay_type": "in vivo, human", "set-up": "key to unadjusted change in ADCS-ADL score, Mean ± Std. Dev: change from baseline on ADCS-ADL scale 0–78, higher = greater function", "settings": "for ADCS-ADL Cohen's d: week 57, compared to standard of care", "excerpt": "The present study integrates and analyzes data and samples from two consecutive clinical trials: 57-week study and 208-week study. 57-week study was a multicenter Phase 2a clinical trial of the drug ANAVEX2-73 that recruited a sample of 32 subjects with mild-to-moderate AD. It consisted of two parts: Part A was a simple randomized, open-label, two-period, cross-over, adaptive trial lasting up to 5 weeks. Each period involved one specific administration route and two possible dose levels: in one period the oral dose (30 mg or 50 mg) was administrated and in the other period an intravenous (IV) form (3 mg or 5 mg) was administered, making a total of 8 possible dose administration schemes in Part A (details available in FIG. 2A). The two periods were separated by a wash-out period of 12 days where no dose was given.\nPart B, following immediately after Part A, was an open-label extension of the oral daily dose for an additional 52 weeks. The primary endpoint of 57-week study was to establish the safety and tolerability of the drug. Secondary endpoints aimed at establishing the relationship between dosing regimen and pharmacodynamics-exploratory efficacy outcomes of cognition and function. Cognition was assessed by the Mini Mental State Examination (MMSE), while functional abilities by the Alzheimer's Disease Co-operative Study—Activities of Daily Living Inventory (ADCS-ADL). Additional cognitive measures included the Cogstate Brief Battery (CBB), and functional measures of Electroencephalography and Event-Related Potential (EEG and ERP). Part B continued an adaptive oral administration scheme. Table 12 summarizes mean oral dose administration during the 57-week study study.\nDue to favorable safety and tolerability profile of the 57-week study (Table 2), and in response to requests from patients and caregivers, a 208-week open-label extension study (208-week study) was carried out immediately after completion of 57-week study Part B. 208-week study enrolled the 24 subjects who completed Part B and applied similarly an adaptive daily oral administration scheme. ANAVEX2-73-003 involves continuous evaluation of safety and efficacy as measured by the MMSE and ADCS-ADL. At week 148 (interim time point for analyses), data on the subjects remaining in the study (n=21) was analyzed for efficacy outcomes. This report was drafted using data available at week 148, while ANAVEX2-73-003 is still ongoing.\nExploratory clinical efficacy in this study was defined as change from baseline of each patient's cognitive (MMSE) and functional ability (ADCS-ADL) scores. The MMSE57 is a widely used, validated instrument in clinical AD research, including as a cognitive outcome measure in drug trials. The range of the scale is from 0 to 30, with a higher score indicating higher cognitive function. The ADCS-ADL58 is undertaken in a structured caregiver interview format and assesses performance in activities of daily living of patients with AD. The scale is from 0 to 78, with a higher score indicating greater function. The ADCS-ADL has shown to have good test-retest reliability 59. The MMSE and the ADCS-ADL were assessed during pre-specified clinical site visits across 14 different time points during the 57-week study (Weeks 0 and 5 in Part A; Weeks 17, 31, 41, 53, and 57 in Part B), and 208-week study (Weeks 70, 83, 96, 109, 122, 135, and 148) studies.\nCorresponding Delta scores were calculated using the difference between values at each visit and at baseline for each individual patient, with a focus on Week 57. In addition, to lower the impact of noise in MMSE and ADCS-ADL scores, a Slope was estimated using a linear regression across all available time points for each individual patient. The derived scores describe the progression of exploratory efficacy data from baseline at several specific time points (Deltas) and over a set period of time (Slope). […]", "note": "Marks after values point to notes of the source that are not given here.", "data": [{"smiles": "CN(C)CC1CCOC1(c1ccccc1)c1ccccc1.Cl", "note": "(centres unmarked) [ANAVEX2-73, tetrahydro-N,N-dimethyl-2,2-diphenyl-3-furanmethanamine hydrochloride]", "values": [{"measurement": "unadjusted change in ADCS-ADL score, Mean ± Std. Dev", "setting": "Group 3 (n 11), Week 70", "value": "−5.09 ± 10.70"}, {"measurement": "unadjusted change in ADCS-ADL score, Mean ± Std. Dev", "setting": "Group 3 (n 11), Week 83", "value": "−5.55 ± 12.65"}, {"measurement": "unadjusted change in ADCS-ADL score, Mean ± Std. Dev", "setting": "Group 3 (n 11), Week 96", "value": "−8.64 ± 16.10"}, {"measurement": "unadjusted change in ADCS-ADL score, Mean ± Std. Dev", "setting": "Group 3 (n 11), Week 109", "value": "−9.45 ± 15.13"}, {"measurement": "unadjusted change in ADCS-ADL score, Mean ± Std. Dev", "setting": "Group 3 (n 11), Week 122", "value": "−9.27 ± 12.17"}, {"measurement": "unadjusted change in ADCS-ADL score, Mean ± Std. Dev", "setting": "Group 3 (n 11), Week 135", "value": "11.09 ± 16.16"}, {"measurement": "unadjusted change in ADCS-ADL score, Mean ± Std. Dev", "setting": "Group 3 (n 11), Week 148", "value": "−14.73 ± 17.70"}, {"measurement": "unadjusted change in ADCS-ADL score, Mean ± Std. Dev", "setting": "Group 4 (n 14), Week 148", "value": "−19.43 ± 18.50"}, {"measurement": "unadjusted change in ADCS-ADL score, Mean ± Std. Dev", "setting": "Group 4 (n 15), Week 109", "value": "−12.60 ± 15.00"}, {"measurement": "unadjusted change in ADCS-ADL score, Mean ± Std. Dev", "setting": "Group 4 (n 15), Week 122", "value": "−15.20 ± 17.30"}, {"measurement": "unadjusted change in ADCS-ADL score, Mean ± Std. Dev", "setting": "Group 4 (n 16), Week 0", "value": "0.00 ± 0.00"}, {"measurement": "unadjusted change in ADCS-ADL score, Mean ± Std. Dev", "setting": "Group 4 (n 16), Week 5", "value": "−1.25 ± 5.54"}, {"measurement": "unadjusted change in ADCS-ADL score, Mean ± Std. Dev", "setting": "Group 4 (n 16), Week 17", "value": "−0.44 ± 3.42"}, {"measurement": "unadjusted change in ADCS-ADL score, Mean ± Std. Dev", "setting": "Group 4 (n 16), Week 31", "value": "−2.31 ± 6.00"}, {"measurement": "unadjusted change in ADCS-ADL score, Mean ± Std. Dev", "setting": "Group 4 (n 16), Week 41", "value": "−3.31 ± 7.03"}, {"measurement": "unadjusted change in ADCS-ADL score, Mean ± Std. Dev", "setting": "Group 4 (n 16), Week 53", "value": "3.81 ± 7.24"}, {"measurement": "unadjusted change in ADCS-ADL score, Mean ± Std. Dev", "setting": "Group 4 (n 16), Week 57", "value": "−3.38 ± 7.60"}, {"measurement": "unadjusted change in ADCS-ADL score, Mean ± Std. Dev", "setting": "Group 4 (n 16), Week 70", "value": "−6.94 ± 10.87"}, {"measurement": "unadjusted change in ADCS-ADL score, Mean ± Std. Dev", "setting": "Group 4 (n 16), Week 96", "value": "−13.25 ± 16.77"}, {"measurement": "unadjusted change in ADCS-ADL score, Mean ± Std. Dev", "setting": "Group 4 (n 16), Week 135", "value": "−19.12 ± 19.67"}, {"measurement": "unadjusted change in ADCS-ADL score, Mean ± Std. Dev", "setting": "Group 5 (n 4), Week 5", "value": "−3.25 ± 11.30"}, {"measurement": "unadjusted change in ADCS-ADL score, Mean ± Std. Dev", "setting": "Group 5 (n 4), Week 31", "value": "−8.75 ± 3.30"}, {"measurement": "unadjusted change in ADCS-ADL score, Mean ± Std. Dev", "setting": "Group 5 (n 4), Week 122", "value": "−27.75 ± 12.26"}, {"measurement": "unadjusted change in ADCS-ADL score, Mean ± Std. Dev", "setting": "Group 5 (n 5), Week 0", "value": "0.00 ± 0.00"}, {"measurement": "unadjusted change in ADCS-ADL score, Mean ± Std. Dev", "setting": "Group 5 (n 5), Week 17", "value": "−4.20 ± 4.09"}, {"measurement": "unadjusted change in ADCS-ADL score, Mean ± Std. Dev", "setting": "Group 5 (n 5), Week 41", "value": "6.00 ± 3.00"}, {"measurement": "unadjusted change in ADCS-ADL score, Mean ± Std. Dev", "setting": "Group 5 (n 5), Week 53", "value": "−10.00 ± 6.78"}, {"measurement": "unadjusted change in ADCS-ADL score, Mean ± Std. Dev", "setting": "Group 5 (n 5), Week 57", "value": "−11.20 ± 8.93"}, {"measurement": "unadjusted change in ADCS-ADL score, Mean ± Std. Dev", "setting": "Group 5 (n 5), Week 70", "value": "−14.80 ± 9.63"}, {"measurement": "unadjusted change in ADCS-ADL score, Mean ± Std. Dev", "setting": "Group 5 (n 5), Week 83", "value": "−13.20 ± 11.52"}, {"measurement": "unadjusted change in ADCS-ADL score, Mean ± Std. Dev", "setting": "Group 5 (n 5), Week 96", "value": "−18.60 ± 11.67"}, {"measurement": "unadjusted change in ADCS-ADL score, Mean ± Std. Dev", "setting": "Group 5 (n 5), Week 109", "value": "−19.20 ± 13.31"}, {"measurement": "unadjusted change in ADCS-ADL score, Mean ± Std. Dev", "setting": "Group 5 (n 5), Week 135", "value": "−24.00 ± 14.65"}, {"measurement": "unadjusted change in ADCS-ADL score, Mean ± Std. Dev", "setting": "Group 5 (n 5), Week 148", "value": "−26.00 ± 16.17"}, {"measurement": "unadjusted change in ADCS-ADL score, Mean ± Std. Dev", "setting": "Group 6 (n 2), Week 5", "value": "0.50 ± 9.19"}, {"measurement": "unadjusted change in ADCS-ADL score, Mean ± Std. Dev", "setting": "Group 6 (n 2), Week 31", "value": "−10.50 ± 3.54"}, {"measurement": "unadjusted change in ADCS-ADL score, Mean ± Std. Dev", "setting": "Group 6 (n 3), Week 0", "value": "0.00 ± 0.00"}, {"measurement": "unadjusted change in ADCS-ADL score, Mean ± Std. Dev", "setting": "Group 6 (n 3), Week 17", "value": "−5.00 ± 5.20"}, {"measurement": "unadjusted change in ADCS-ADL score, Mean ± Std. Dev", "setting": "Group 6 (n 3), Week 41", "value": "−6.67 ± 4.04"}, {"measurement": "unadjusted change in ADCS-ADL score, Mean ± Std. Dev", "setting": "Group 6 (n 3), Week 53", "value": "−12.67 ± 8.02"}, {"measurement": "unadjusted change in ADCS-ADL score, Mean ± Std. Dev", "setting": "Group 6 (n 3), Week 57", "value": "−14.67 ± 10.50"}, {"measurement": "unadjusted change in ADCS-ADL score, Mean ± Std. Dev", "setting": "Group 6 (n 3), Week 70", "value": "−18.00 ± 12.12"}, {"measurement": "unadjusted change in ADCS-ADL score, Mean ± Std. Dev", "setting": "Group 6 (n 3), Week 83", "value": "−17.00 ± 14.11"}, {"measurement": "unadjusted change in ADCS-ADL score, Mean ± Std. Dev", "setting": "Group 6 (n 3), Week 96", "value": "−26.00 ± 8.19"}, {"measurement": "unadjusted change in ADCS-ADL score, Mean ± Std. Dev", "setting": "Group 6 (n 3), Week 109", "value": "25.33 ± 14.47"}, {"measurement": "unadjusted change in ADCS-ADL score, Mean ± Std. Dev", "setting": "Group 6 (n 3), Week 122", "value": "−32.67 ± 8.96"}, {"measurement": "unadjusted change in ADCS-ADL score, Mean ± Std. Dev", "setting": "Group 6 (n 3), Week 135", "value": "−32.00 ± 13.75"}, {"measurement": "unadjusted change in ADCS-ADL score, Mean ± Std. Dev", "setting": "Group 6 (n 3), Week 148", "value": "−34.33 ± 15.82"}, {"measurement": "favorable difference in adjusted ADCS-ADL, higher concentration arm compared with low/medium arm", "setting": "MMRM-LME, over 148 weeks", "value": 88, "unit": "%"}, {"measurement": "effect of higher concentrations on Delta ADCS-ADL scores", "setting": "plasma concentration groups, week 57, p=0.03", "value": "improved"}, {"measurement": "ADCS-ADL Cohen's d", "setting": "Absence of COMT_L146fs variant & Baseline MMSE ≥20, N 11", "value": "0.89**"}, {"measurement": "ADCS-ADL Cohen's d", "setting": "Absence of COMT_L146fs variant, N 16", "value": "0.57*"}, {"measurement": "ADCS-ADL Cohen's d", "setting": "Absence of SIGMAR1_Q2P variant, N 16", "value": 0.43}, {"measurement": "ADCS-ADL Cohen's d", "setting": "Absence of SIGNAR1_Q2P variant & Baseline MMSE ≥20, N 11", "value": "0.76*"}, {"measurement": "ADCS-ADL Cohen's d", "setting": "All, N 21", "value": 0.18}, {"measurement": "ADCS-ADL Cohen's d", "setting": "Baseline MMSE ≥20, N 13", "value": "0.66*"}]}]}
